Active and inactive are the calls of the source. The rule behind the calls is not given here.
Legend:
[1] = system: Mus musculus; test: Reduction in amyloid beta plaques in po dosed 3xTg-AD transgenic mouse brain hippocampus subiculum using BAM-10 primary antibody by immunohistochemical assay relative to 3xTg-AD-non T; format: functional, organism-based
[2] = system: Astrocyte; test: Cytotoxicity against C57BL/J6 mouse astrocyte assessed as cell viability after 24 hrs by MTT assay; format: cell-based
[3] = system: Mus musculus; test: Cognitive enhancing effect in 3xTg-AD transgenic mouse harboring human PS1M146V/APPSWE/tauP301L assessed as number of entries to the target quadrant at 1 mg/kg, po for 8 weeks measured by Morris water maze test; format: functional, organism-based
[4] = system: Mus musculus; test: Cognitive enhancing effect in female 3xTg-AD transgenic mouse harboring human PS1M146V/APPSWE/tauP301L assessed as time spent in the target quadrant at 1 mg/kg, po for […] by Morris water maze test; format: functional, organism-based; details: time 8.0 weeks
[5] = system: Mus musculus; test: Cognitive enhancing effect in female 3xTg-AD transgenic mouse harboring human PS1M146V/APPSWE/tauP301L assessed as latency to enter to the target quadrant at 1 mg/kg, po for 8 weeks by Morris water maze test; format: functional, organism-based
[6] = system: Mus musculus; test: Cognitive enhancing effect in female 3xTg-AD transgenic mouse harboring human PS1M146V/APPSWE/tauP301L assessed as escape latency time at 1 mg/kg, po for 8 weeks by Morris water maze test; format: functional, organism-based
[7] = Ex vivo binding affinity to amyloid beta (1 to 42) in 3xTg-AD transgenic APP/PS1 mouse brain section assessed as binding constant after 40 mins by autoradiography; format: tissue-based
[8] = Octanol/PBS partition co-efficient, log P of compound; format: physicochemical
[9] = target: Amyloid-beta precursor protein (Homo sapiens) (UniProt P05067); test: Inhibition of Abeta(1 to 42) peptide aggregation in immortalized human microglia with SV40 assessed as reduction in fluorescence intensity at 1 uM and measured after 48 hrs by thiazine red staining method
[10] = target: Amyloid-beta precursor protein (Homo sapiens) (UniProt P05067); test: Inhibition of Abeta(1 to 42) peptide aggregation in immortalized human microglia with SV40 assessed as reduction in fluorescence intensity at 0.001 to 50 micromol/L and measured after 48 hrs by thiazine red staining method; format: tissue-based; details: dose micromol/L 0.001-50, time 48.0 hrs
[11] = system: Mus musculus; test: Reduction in amyloid fibril elongation in po dosed 3xTg-AD transgenic mouse brain hippocampus subiculum using BAM-10 primary antibody by immunohistochemical assay relative to 3xTg-AD-non T; format: functional, organism-based
[12] = target: Amyloid-beta precursor protein (Homo sapiens) (UniProt P05067); test: Inhibition of Abeta(1 to 42) peptide aggregation in immortalized human microglia with SV40 assessed as reduction in fluorescence intensity at 1 nM and measured after 48 hrs by thiazine red staining method; format: tissue-based

Amyloid-beta precursor protein (Homo sapiens), sequence (P05067 whole entry): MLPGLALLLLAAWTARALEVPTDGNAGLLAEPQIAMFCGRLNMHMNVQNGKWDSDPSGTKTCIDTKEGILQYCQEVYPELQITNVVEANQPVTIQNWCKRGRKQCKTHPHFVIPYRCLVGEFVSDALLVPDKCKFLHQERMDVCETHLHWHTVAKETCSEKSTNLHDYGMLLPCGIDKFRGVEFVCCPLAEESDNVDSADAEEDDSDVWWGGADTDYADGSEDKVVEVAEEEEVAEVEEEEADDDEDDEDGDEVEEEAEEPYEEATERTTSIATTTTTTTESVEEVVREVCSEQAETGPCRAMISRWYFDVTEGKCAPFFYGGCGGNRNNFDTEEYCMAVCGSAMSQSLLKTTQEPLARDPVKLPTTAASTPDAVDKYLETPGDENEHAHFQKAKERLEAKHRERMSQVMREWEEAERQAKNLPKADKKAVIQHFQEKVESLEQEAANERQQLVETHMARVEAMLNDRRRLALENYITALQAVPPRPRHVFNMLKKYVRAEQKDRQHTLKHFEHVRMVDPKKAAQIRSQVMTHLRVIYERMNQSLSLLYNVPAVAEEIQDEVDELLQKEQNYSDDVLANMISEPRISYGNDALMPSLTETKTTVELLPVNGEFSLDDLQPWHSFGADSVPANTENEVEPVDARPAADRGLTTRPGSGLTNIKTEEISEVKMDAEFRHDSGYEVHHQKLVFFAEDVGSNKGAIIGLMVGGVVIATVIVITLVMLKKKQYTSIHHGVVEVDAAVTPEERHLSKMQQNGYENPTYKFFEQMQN

Kd [7] [µM]	logP [8]	Structure (SMILES)	Activity [1]	IC50 [2] [µM]	Activity [3]	Activity [4]	Activity [5]	Activity [6]	inhibition [9]	inhibition [10]	inhibition [11]	inhibition [12]
0.0158	1.77	CSC(=S)NCCNC(=O)CCC(=O)Nc1cccc2ccccc12	Active	195	Active	inactive	inactive	inactive	Active	Active	Active	–
–	–	O=C(O)CCCCCNC(=O)CCC(=O)Nc1cccc2ccccc12	–	433	–	–	–	–	–	Active	–	Active
–	–	O=C(O)CCNC(=O)CCC(=O)Nc1cccc2ccccc12	–	874	–	–	–	–	–	Active	–	Active
0.016	–	CNc1ccc(/C=C/c2ccc(OCCOCCOCCF)cc2)cc1 [FLORBETABEN]	–	–	–	–	–	–	–	–	–	–

— ChEMBL document CHEMBL4665878, “A new naphthalene derivative with anti-amyloidogenic activity as potential therapeutic agent for Alzheimer's disease” (Bioorg Med Chem, 2020)
